Consider 35 compounds from patent US20250346569A1, “NEW DERIVATIVES FOR TREATING TRPM3 MEDIATED DISORDERS” (Katholieke Universiteit Leuven, priority 2022, published 2025).

Where only a bound is given, the exact number is not on record here.

The assay addresses T1, mouse TRPM3α2 (mTRPM3) ion channel (Mus musculus, UniProt J9SQF3).
T1 construct: expressed in transfected cells; host or cells: flip-in HEK293
The assay can be described thus: Monitoring the TRPM3 ion channel driven Ca2+ uptake (Fluo-4 AM assay). In kind it is cell-based. The note with it: TRPM3 overexpressing flip-in HEK293 cells, channel stimulated with Pregnenolone sulfate (PS) 50 μM. In short, it runs like this:
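Flp-In HEK293 cells overexpressing mTRPM3α2, loaded with Fluo-4 AM and added to wells holding compound plus 50 μM pregnenolone sulfate in Ca2+-containing Krebs buffer. Fluorescence (ex 485/em 535) read right after cell addition. Inhibition normalised to vehicle and positive-control inhibitor; IC50 derived.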

T1 sequence (J9SQF3 1-1709 isoform J9SQF3-12): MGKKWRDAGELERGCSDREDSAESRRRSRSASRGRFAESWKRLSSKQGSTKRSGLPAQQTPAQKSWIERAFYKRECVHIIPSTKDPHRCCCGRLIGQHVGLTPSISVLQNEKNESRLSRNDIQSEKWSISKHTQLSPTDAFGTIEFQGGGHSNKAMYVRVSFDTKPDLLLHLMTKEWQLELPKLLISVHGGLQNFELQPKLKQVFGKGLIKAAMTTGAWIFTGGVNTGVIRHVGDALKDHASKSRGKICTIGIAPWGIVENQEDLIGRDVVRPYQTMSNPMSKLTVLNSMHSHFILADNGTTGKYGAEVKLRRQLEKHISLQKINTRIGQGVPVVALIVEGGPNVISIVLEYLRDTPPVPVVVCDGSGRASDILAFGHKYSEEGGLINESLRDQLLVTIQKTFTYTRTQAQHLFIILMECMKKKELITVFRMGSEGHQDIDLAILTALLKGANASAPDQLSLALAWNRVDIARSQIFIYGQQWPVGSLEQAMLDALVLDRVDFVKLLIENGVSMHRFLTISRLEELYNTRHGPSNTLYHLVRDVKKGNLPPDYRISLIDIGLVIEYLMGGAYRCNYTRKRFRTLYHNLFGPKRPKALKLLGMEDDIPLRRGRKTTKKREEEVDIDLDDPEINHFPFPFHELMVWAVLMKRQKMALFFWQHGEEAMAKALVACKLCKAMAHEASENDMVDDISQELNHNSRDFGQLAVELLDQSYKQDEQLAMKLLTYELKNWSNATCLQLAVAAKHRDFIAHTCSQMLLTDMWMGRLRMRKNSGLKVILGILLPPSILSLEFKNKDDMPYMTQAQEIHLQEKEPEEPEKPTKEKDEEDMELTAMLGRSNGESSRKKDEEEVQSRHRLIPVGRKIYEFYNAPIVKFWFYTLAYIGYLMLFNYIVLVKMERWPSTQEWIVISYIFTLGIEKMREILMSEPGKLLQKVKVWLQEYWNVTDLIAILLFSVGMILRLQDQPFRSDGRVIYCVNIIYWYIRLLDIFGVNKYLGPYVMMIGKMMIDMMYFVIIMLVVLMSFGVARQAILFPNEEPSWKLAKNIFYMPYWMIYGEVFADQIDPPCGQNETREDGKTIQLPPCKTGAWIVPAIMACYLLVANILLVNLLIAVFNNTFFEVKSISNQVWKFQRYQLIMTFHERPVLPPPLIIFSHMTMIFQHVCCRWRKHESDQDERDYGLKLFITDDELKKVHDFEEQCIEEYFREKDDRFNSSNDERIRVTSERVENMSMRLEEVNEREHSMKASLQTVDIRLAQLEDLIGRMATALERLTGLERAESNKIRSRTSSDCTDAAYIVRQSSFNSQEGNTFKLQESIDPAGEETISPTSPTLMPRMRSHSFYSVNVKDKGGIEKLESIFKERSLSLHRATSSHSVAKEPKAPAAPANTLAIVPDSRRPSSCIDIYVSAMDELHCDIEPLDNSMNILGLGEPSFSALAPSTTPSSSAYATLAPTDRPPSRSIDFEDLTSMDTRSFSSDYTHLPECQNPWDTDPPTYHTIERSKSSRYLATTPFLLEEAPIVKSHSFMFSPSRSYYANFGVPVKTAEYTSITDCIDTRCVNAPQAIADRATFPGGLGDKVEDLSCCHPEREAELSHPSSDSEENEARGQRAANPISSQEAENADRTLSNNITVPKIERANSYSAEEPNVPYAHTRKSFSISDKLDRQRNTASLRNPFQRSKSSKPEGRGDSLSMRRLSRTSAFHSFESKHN

`CC(C)(O)CNC(=O)c1c(C(F)F)sc2ccc(OCc3ccccc3)cc12` [Cpd 014, 5-(benzyloxy)-2-(difluoromethyl)-N-(2-hydroxy-2-methylpropyl)-1-benzothiophene-3-carboxamide] yielded an IC50 above 20 µM.

The compound `Cc1sc2ccc(OCc3ccccc3)cc2c1C(=O)NCc1cccc(O)n1` [Cpd 104, 5-(benzyloxy)-N-[(6-hydroxypyridin-2-yl)methyl]-2-methyl-1-benzothiophene-3-carboxamide] gave an IC50 above 20 µM.

For the compound `COc1ncccc1COc1ccc2sc(C)c(C(=O)NC3(CO)CCOCC3)c2c1` [Cpd 144, N-[4-(hydroxymethyl)oxan-4-yl]-5-[(2-methoxypyridin-3-yl)methoxy]-2-methyl-1-benzothiophene-3-carboxamide], the IC50 was in the range of 1 to 20 µM.

`Cc1ncsc1COc1ccc2sc(C)c(C(=O)NC3(CO)CCOCC3)c2c1` [Cpd 036, N-[4-(hydroxymethyl)oxan-4-yl]-2-methyl-5-[(4-methyl-1,3-thiazol-5-yl)methoxy]-1-benzothiophene-3-carboxamide] came in with an IC50 below 1 µM.

For `Cc1sc2ccc(OCc3ccccc3)cc2c1C(=O)N[C@H](C)C(N)=O` [Cpd 001, (2R)-2-{[5-(benzyloxy)-2-methyl-1-benzothiophen-3-yl]formamido}propanamide], the IC50 is below 1 µM.

Regarding `Cc1ncsc1COc1ccc2sc(C)c(C(=O)NCC(C)(C)O)c2c1` [Cpd 045, N-(2-hydroxy-2-methylpropyl)-2-methyl-5-[(4-methyl-1,3-thiazol-5-yl)methoxy]-1-benzothiophene-3-carboxamide], the half-maximal inhibitory concentration (IC50) is below 1 µM.

`Cc1sc2ccc(OCc3ccccn3)cc2c1C(=O)NC1(C(N)=O)COC1` [Cpd 088, 3-{2-methyl-5-[(pyridin-2-yl)methoxy]-1-benzothiophene-3-amido}oxetane-3-carboxamide] came in with an IC50 below 1 µM.

Take `Cc1nc(COc2ccc3sc(C)c(C(=O)NC(C)(CO)C(N)=O)c3c2)cs1` (single isomer, unassigned) [Cpd 015 - En2, 3-hydroxy-2-methyl-2-({2-methyl-5-[(2-methyl-1,3-thiazol-4-yl)methoxy]-1-benzothiophen-3-yl}formamido)propanamide]: the IC50 was below 1 µM.

`O=C(NC1CCNC1=O)c1c(C(F)F)sc2ccc(OCc3ccccc3)cc12` (centres unmarked) [Cpd 146, 5-(benzyloxy)-2-(difluoromethyl)-N-(2-oxopyrrolidin-3-yl)-1-benzothiophene-3-carboxamide] displayed an IC50 below 1 µM.

Consider `CNC(=O)C1(NC(=O)c2c(C)sc3ccc(OCc4cnc(C)s4)cc23)CCOC1` (single isomer, unassigned) [Cpd 133 - En2, N-methyl-3-{2-methyl-5-[(2-methyl-1,3-thiazol-5-yl)methoxy]-1-benzothiophene-3-amido}oxolane-3-carboxamide], for which the IC50 is below 1 µM.

`COc1ncccc1COc1ccc2sc(C)c(C(=O)NC(C)(C)C(N)=O)c2c1` [Cpd 141, 2-({5-[(2-methoxypyridin-3-yl)methoxy]-2-methyl-1-benzothiophen-3-yl}formamido)-2-methylpropanamide]: the IC50 is below 1 µM.

`Cc1sc2ccc(OCc3ccccn3)cc2c1C(=O)N[C@@H](C)C(N)=O` [Cpd 008, (2S)-2-({2-methyl-5-[(pyridin-2-yl)methoxy]-1-benzothiophen-3-yl}formamido)propanamide] returned an IC50 below 1 µM.

In the case of `Cc1sc2ccc(OCc3ccccn3)cc2c1C(=O)NC1(CO)CCOCC1` [Cpd 082, N-[4-(hydroxymethyl)oxan-4-yl]-2-methyl-5-[(pyridin-2-yl)methoxy]-1-benzothiophene-3-carboxamide], the IC50 lay in the range of 1 to 20 µM.

`Cc1sc2ccc(OCC3COC3)cc2c1C(=O)NC(C)(CO)C(N)=O` (single isomer, unassigned) [Cpd 068 - En2, 3-hydroxy-2-methyl-2-({2-methyl-5-[(oxetan-3-yl)methoxy]-1-benzothiophen-3-yl}formamido)propanamide] displayed an IC50 of 1 to 20 µM.

`Cc1sc2ccc(OCc3ccccc3F)cc2c1C(=O)N[C@H]1CCN(CCO)C1=O` [Cpd 059, 5-[(2-fluorophenyl)methoxy]-N-[(3S)-1-(2-hydroxyethyl)-2-oxopyrrolidin-3-yl]-2-methyl-1-benzothiophene-3-carboxamide]: the IC50 was below 1 µM.

In the case of `Cc1ncc(COc2ccc3sc(C)c(C(=O)NC4(CO)CCC4)c3c2)s1` [Cpd 023, N-[1-(hydroxymethyl)cyclobutyl]-2-methyl-5-[(2-methyl-1,3-thiazol-5-yl)methoxy]-1-benzothiophene-3-carboxamide], the IC50 was below 1 µM.

In turn, `Cc1ncc(COc2ccc3sc(C)c(C(=O)N[C@H](CO)C(N)=O)c3c2)s1` [Cpd 017, (2R)-3-hydroxy-2-({2-methyl-5-[(2-methyl-1,3-thiazol-5-yl)methoxy]-1-benzothiophen-3-yl}formamido)propanamide] showed an IC50 below 1 µM.

With `CN1CC(NC(=O)c2c(C(F)F)sc3ccc(OCc4ccccc4)cc23)C(F)(F)C1` (centres unmarked) [Cpd 119, 5-(benzyloxy)-N-(4,4-difluoro-1-methylpyrrolidin-3-yl)-2-(difluoromethyl)-1-benzothiophene-3-carboxamide], the IC50 is 1 to 20 µM.

In turn, `O=C1CCC(CNC(=O)c2c(C(F)F)sc3ccc(OCc4ccccc4)cc23)N1` (centres unmarked) [Cpd 148, 5-(benzyloxy)-2-(difluoromethyl)-N-[(5-oxopyrrolidin-2-yl)methyl]-1-benzothiophene-3-carboxamide] registered an IC50 above 20 µM.

In turn, `CNC(=O)c1c(C)sc2ccc(OCc3scnc3C)cc12` [Cpd 137, N,2-dimethyl-5-[(4-methyl-1,3-thiazol-5-yl)methoxy]-1-benzothiophene-3-carboxamide] returned an IC50 of 1 to 20 µM.

Take `Cc1ncc(COc2ccc3sc(C)c(C(=O)N[C@H](C)C(N)=O)c3c2)s1` [Cpd 005, (2R)-2-({2-methyl-5-[(2-methyl-1,3-thiazol-5-yl)methoxy]-1-benzothiophen-3-yl}formamido)propanamide]: the IC50 is below 1 µM.

The compound `Cc1sc2ccc(OCc3ccccc3)cc2c1C(=O)NCCN(C)C` [Cpd 115, 5-(benzyloxy)-N-[2-(dimethylamino)ethyl]-2-methyl-1-benzothiophene-3-carboxamide] had an IC50 of 1 to 20 µM.

For the compound `Cc1ncsc1COc1ccc2sc(C)c(C(=O)NC3CCNCC3(F)F)c2c1` (single isomer, unassigned) [Cpd 042 - En1, N-(3,3-difluoropiperidin-4-yl)-2-methyl-5-[(4-methyl-1,3-thiazol-5-yl)methoxy]-1-benzothiophene-3-carboxamide], the IC50 is below 1 µM.

In turn, `Cc1sc2ccc(OCc3ccccn3)cc2c1C(=O)N[C@H](C)C(N)=O` [Cpd 003, (2R)-2-({2-methyl-5-[(pyridin-2-yl)methoxy]-1-benzothiophen-3-yl}formamido)propanamide] had an IC50 below 1 µM.

`Cc1sc2ccc(OCc3ccccc3F)cc2c1C(=O)NC1(CO)CC1` [Cpd 074, 5-[(2-fluorophenyl)methoxy]-N-[1-(hydroxymethyl)cyclopropyl]-2-methyl-1-benzothiophene-3-carboxamide] showed an IC50 below 1 µM.

For `Cc1sc2ccc(OCc3cccnc3C(F)(F)F)cc2c1C(=O)N[C@@H](C)C(N)=O` [Cpd 009, (2S)-2-[(2-methyl-5-{[2-(trifluoromethyl)pyridin-3-yl]methoxy}-1-benzothiophen-3-yl)formamido]propanamide], the IC50 is below 1 µM.

Compound `Cc1sc2ccc(OCC3CC3)cc2c1C(=O)NC(C)(CO)CO` [Cpd 069, 5-(cyclopropylmethoxy)-N-(1,3-dihydroxy-2-methylpropan-2-yl)-2-methyl-1-benzothiophene-3-carboxamide] yielded an IC50 below 1 µM.

As for `Cc1sc2ccc(OCC3CC3)cc2c1C(=O)N[C@@H](CO)C(N)=O` [Cpd 050, (2S)-2-{[5-(cyclopropylmethoxy)-2-methyl-1-benzothiophen-3-yl]formamido}-3-hydroxypropanamide], the IC50 was below 1 µM.

Consider `Cc1sc2ccc(OCc3ccccc3)cc2c1C(=O)Nc1ccn(C)n1` [Cpd 091, 5-(benzyloxy)-2-methyl-N-(1-methyl-1H-pyrazol-3-yl)-1-benzothiophene-3-carboxamide], for which the IC50 is below 1 µM.

In turn, `Cc1sc2ccc(OCc3ccccc3F)cc2c1C(=O)NC1CCNCC1(F)F` (single isomer, unassigned) [Cpd 095 - En2, N-(3,3-difluoropiperidin-4-yl)-5-[(2-fluorophenyl)methoxy]-2-methyl-1-benzothiophene-3-carboxamide] returned an IC50 of 1 to 20 µM.

In turn, `Cc1ncsc1COc1ccc2sc(C)c(C(=O)Nc3ccn(C)n3)c2c1` [Cpd 040, 2-methyl-5-[(4-methyl-1,3-thiazol-5-yl)methoxy]-N-(1-methyl-1H-pyrazol-3-yl)-1-benzothiophene-3-carboxamide] registered an IC50 below 1 µM.

In turn, `Cc1sc2ccc(OCc3ccccc3)cc2c1C(=O)NCC1(N(C)C)CCCC1` [Cpd 111, 5-(benzyloxy)-N-{[1-(dimethylamino)cyclopentyl]methyl}-2-methyl-1-benzothiophene-3-carboxamide] gave an IC50 below 1 µM.

In turn, `Cc1sc2ccc(OCc3cccnc3O)cc2c1C(=O)NC1(CO)CCC1` [Cpd 079, N-[1-(hydroxymethyl)cyclobutyl]-5-[(2-hydroxypyridin-3-yl)methoxy]-2-methyl-1-benzothiophene-3-carboxamide] came in with an IC50 of 1 to 20 µM.

`Cc1sc2ccc(OCc3cccnc3C(F)(F)F)cc2c1C(=O)Nc1ccn(C)n1` [Cpd 092, 2-methyl-N-(1-methyl-1H-pyrazol-3-yl)-5-{[2-(trifluoromethyl)pyridin-3-yl]methoxy}-1-benzothiophene-3-carboxamide]: the IC50 was below 1 µM.

In turn, `Cc1sc2ccc(OCc3ccccc3F)cc2c1C(=O)NC1(C(N)=O)COC1` [Cpd 087, 3-{5-[(2-fluorophenyl)methoxy]-2-methyl-1-benzothiophene-3-amido}oxetane-3-carboxamide] came in with an IC50 below 1 µM.

As usually defined, the IC50 is the concentration that gives 50% inhibition. Lower therefore signals higher potency.
